The record followed here is ChEMBL document CHEMBL3751691, “A Journey around the Medicinal Chemistry of Hepatitis C Virus Inhibitors Targeting NS4B: From Target to Preclinical Drug Candidates” (J Med Chem, 2016).

Data set [1] concerns Hepatitis C virus. The experiment in a line: Antiviral activity against HCV genotype 1b infected in human Huh7 cells assessed as inhibition of viral replication after 72 hrs by ELISA. The class given is functional, organism-based, Hepacivirus hominis. As to conditions: Huh-7, 72 h. On the technique in general: ELISA stands for enzyme-linked immunosorbent assay.
Data set [2] can be described thus: Binding affinity to […] by fluorescence assay. Also on record: species or system Hepacivirus hominis.
A short description of data set [3]: Inhibition of HCV NS3/4A protease. Also on record: species or system Hepacivirus hominis.
For data set [4], the system named is Hepatitis C virus. As to the kind of experiment: Antiviral activity against HCV genotype 1b. The class given is functional, organism-based, Hepacivirus hominis.
Data set [5] concerns Hepatitis C virus. As to the kind of experiment: Antiviral activity against HCV genotype 1b infected in human Huh7 cells assessed as inhibition of viral replication by luciferase reporter-based viral replicon assay. Type of data set: functional, organism-based, Hepacivirus hominis. As to conditions: Huh-7.
The test system of data set [6] is Hepatitis C virus. The experiment in a line: Antiviral activity against HCV genotype 1a infected in human Huh7 cells assessed as inhibition of viral replication by luciferase reporter-based viral replicon assay. The class given is functional, Hepacivirus hominis. Conditions: subtype 1a, Huh-7. (In general: Reporter assays use an easily measured gene product as a stand-in for the process of interest.)

The nature of data set [7]: Ratio of plasma concentration in cynomolgus monkey at 8 hrs to EC50 for antiviral activity against HCV genotype 1b. Type of data set: ADME, cell-free.
A short description of data set [8]: Ratio of plasma concentration in CRL-CD-BR rat at 8 hrs to EC50 for antiviral activity against HCV genotype 1b. Type of data set: ADME, cell-free.
Data set [9] can be described thus: Ratio of drug level in brain to plasma in CRL-CD-BR rat. Type of data set: ADME, cell-free. As to conditions: read-out: BPR.
Data set [10] can be described thus: Ratio of drug level in liver to plasma in CRL-CD-BR rat. Type of data set: ADME, cell-free.
The nature of data set [11]: Ratio of plasma concentration in beagle dog at 8 hrs to EC50 for antiviral activity against HCV genotype 1b. The class given is ADME, cell-free.

SMILES strings stand for the structures.

In general, EC50 refers to the concentration at which the effect is half-maximal. As a reminder, the Kd is the constant that tells how readily two partners part at equilibrium. On to `CCCCc1c(C)nn(-c2nnc3c4ccccc4n(CC)c3n2)c1C`, for which the half-maximal effective concentration (EC50) in the data set on Hepatitis C virus [1] came out at 1130 nM. The compound further registered a dissociation constant Kd in data set [2] of 1200 nM.

Regarding `CC(C)(C)c1ccc(C(=O)Nc2sc3c(c2C(N)=O)CCCC3)cc1`, the EC50 in the data set on Hepatitis C virus [1] was determined as 870 nM. In data set [2], this compound returned a Kd of 300 nM.

Broadly, the Ki is a measure of affinity in units of concentration, obtained from inhibition or displacement. The compound `CCC[C@H](NC(=O)[C@@H]1[C@H]2CCC[C@H]2CN1C(=O)[C@@H](NC(=O)[C@@H](NC(=O)c1cnccn1)C1CCCCC1)C(C)(C)C)C(=O)C(=O)NC1CC1` displayed an inhibitory constant (Ki) in data set [3] of 7 nM. Besides, the EC50 with Hepatitis C virus [4] was determined as 350 nM. For orientation: EC90 means the concentration at which the effect reaches the 90% level. As to `CC(C)C[C@H]1CN(C(=O)c2cc(-c3ccccc3)on2)[C@@H](CC(C)C)C(=O)N1`, the EC90 with Hepatitis C virus [5] amounted to 1100 nM. Same read-out and setting: the figure for `CC(C)C[C@H]1CN(C(=O)c2noc(-c3ccccc3)n2)[C@@H](CC(C)C)C(=O)N1` is 1400 nM; for `CC(C)C[C@H]1CN(C(=O)c2cc(-c3ccccc3)[nH]n2)[C@@H](CC(C)C)C(=O)N1` it is above 10000 nM. On the same count and under the same terms, the figure for `COc1ccc(-c2cc(C(=O)N3C[C@H](CC(C)C)NC(=O)[C@@H]3CC(C)C)no2)cc1` is 1300 nM. Still for that read-out and setting: then `CC(C)C[C@H]1CN(C(=O)c2cc(-c3ccc(Cl)cc3)on2)[C@@H](CC(C)C)C(=O)N1`, with 290 nM. As to `CC(C)C[C@H]1CN(C(=O)c2cc(-c3ccc(F)cc3)on2)[C@@H](CC(C)C)C(=O)N1`, the EC90 in the data set on Hepatitis C virus [5] came to 130 nM.

On to `CC(C)C[C@H]1CN(C(=O)c2cc(-c3ccc([N+](=O)[O-])cc3)on2)[C@@H](CC(C)C)C(=O)N1`, for which the EC90 in the data set with Hepatitis C virus [5] was 2600 nM. The same measure, in the same setting: then `CCC[C@H]1CN(C(=O)c2cc(-c3ccc(F)cc3)on2)[C@@H](CC(C)C)C(=O)N1`, with 100 nM; and `C/C=C/[C@H]1CN(C(=O)c2cc(-c3ccc(F)cc3)on2)[C@@H](CC(C)C)C(=O)N1`, with 60 nM; and `CC(C)C[C@H]1C(=O)N[C@@H](C2CCCC2)CN1C(=O)c1cc(-c2ccc(F)cc2)on1`, with 90 nM. Same read-out and setting: the figure for `CC(C)C[C@H]1C(=O)N[C@@H](CO)CN1C(=O)c1cc(-c2ccc(F)cc2)on1` is above 10000 nM; for `COC[C@H]1CN(C(=O)c2cc(-c3ccc(F)cc3)on2)[C@@H](CC(C)C)C(=O)N1` it is above 10000 nM. The same measure, in the same setting: then `CC(C)C[C@H]1C(=O)N[C@@H](c2ccccc2)CN1C(=O)c1cc(-c2ccc(F)cc2)on1`, with 60 nM. For `CC(C)C[C@H]1C(=O)N[C@@H](c2cccs2)CN1C(=O)c1cc(-c2ccc(F)cc2)on1`, the values for the EC90 with Hepatitis C virus [6] and with Hepatitis C virus [5] were 22 nM and 6 nM, respectively. In the case of `CCc1cc2c(cc1F)c(C#N)c(-c1ccc(S(=O)(=O)N[C@@H](C)C(F)(F)F)cn1)n2-c1ncccn1`, the Ratio was 50 in data set [7], 325 in [8] and 460 in data set [11]. Further, the Kp in data set [9] is 0.22; in data set [10], 25. With `CC(C)C[C@H]1CN(C(=O)[C@@H]2C[C@H]2c2ccccc2)[C@@H](CC(C)C)C(=O)N1C`, the EC90 with Hepatitis C virus [5] is 8800 nM. For `CC(C)C[C@H]1CN(C(=O)[C@@H]2C[C@H]2c2ccccc2)[C@@H](CC(C)C)CN1`, the EC90 in the data set on Hepatitis C virus [5] was above 10000 nM. On the same count and under the same terms, the figure for `CC[C@H]1C(=O)N[C@@H](CC(C)C)CN1C(=O)[C@@H]1C[C@H]1c1ccccc1` is above 10000 nM; for `CC[C@H](C)[C@H]1CN(C(=O)[C@@H]2C[C@H]2c2ccccc2)[C@@H](CC(C)C)C(=O)N1` it is above 10000 nM. On to `CCC[C@H]1CN(C(=O)[C@@H]2C[C@H]2c2ccccc2)[C@@H](CC(C)C)C(=O)N1`, for which the concentration for an effect of 90% (EC90) in the data set with Hepatitis C virus [5] came out at 900 nM. Same read-out and setting: then `CC(C)C[C@H]1CN(C(=O)/C=C/c2ccccc2)[C@@H](CC(C)C)C(=O)N1`, with 2300 nM.
